Where a name gives a salt, the structure may show the parent alone.
Tested on: IL-6, GM-CSF, IL-15, IL-2, IL-12, IL-13, TNF-α, and INF-γ

With `C[C@@H]1CCN(C(=O)CC#N)C[C@@H]1N(C)c1ncnc2[nH]ccc12` [tofacitinib citrate] the “IL-6 expression in plasma” value (PO or IC administration, 1 h and 3 h post-treatment) was “inhibition of IL-6 expression”, the “inhibition of IL-6 expression in colon tissue” value (all IC treated groups and high dose PO group (45 mg/kg)) was “sustained through 24 h post-dose” and the “IL-6 inhibition in colon tissue” value (low dose PO group (15 mg/kg), by 12 h post-dose) was “Recovery from IL-6 inhibition”.

From patent US20250325662A1, “METHODS OF TREATING AND PREDICTING NON-RESPONSE TO ANTI-TNF TREATMENT IN SUBJECTS WITH GASTROINTESTINAL TRACT DISEASES” (BT Bidco, Inc., priority 2020, published 2025)
